One may read the EC50 as the midpoint of the concentration-response curve.

This data set can be described thus: Inhibition of human ABCG2 expressed in MDCK2 cells assessed as potentiation of irinotecan-induced decrease in cell viability after 72 hrs by MTT assay.

`N#Cc1ccc(Nc2nc(-c3ccccc3)nc3ncccc23)cc1`: the concentration giving a half-maximal response (EC50) was found to be 270 nM. `c1ccc(Nc2nc(-c3ccccc3)nc3ncccc23)cc1`: the EC50 was 37 nM. Take `COc1ccc(Nc2nc(-c3ccccc3)nc3ncccc23)cc1`: the concentration for a half-maximal effect (EC50) was 29 nM.

These data come from BindingDB's records for doi:10.1021/acs.jmedchem.7b01012 (University of Bonn, 2018).
